Measured values published in ChEMBL document CHEMBL5584204, “Discovery of a novel tetrahydroimidazo[1,2-a]pyridine-5-carboxylic acid derivative as a potent and selective heparanase-1 inhibitor utilizing an improved synthetic approach” (Bioorg Med Chem Lett, 2024).

Columns and labels:
[1] = Inhibition of GBA (unknown origin); parameters: species or system Homo sapiens
[2] = target: T1, Heparanase (Homo sapiens, UniProt Q9Y251); experiment: Inhibition of HPSE1 (unknown origin)
T1 sequence (Q9Y251 whole entry): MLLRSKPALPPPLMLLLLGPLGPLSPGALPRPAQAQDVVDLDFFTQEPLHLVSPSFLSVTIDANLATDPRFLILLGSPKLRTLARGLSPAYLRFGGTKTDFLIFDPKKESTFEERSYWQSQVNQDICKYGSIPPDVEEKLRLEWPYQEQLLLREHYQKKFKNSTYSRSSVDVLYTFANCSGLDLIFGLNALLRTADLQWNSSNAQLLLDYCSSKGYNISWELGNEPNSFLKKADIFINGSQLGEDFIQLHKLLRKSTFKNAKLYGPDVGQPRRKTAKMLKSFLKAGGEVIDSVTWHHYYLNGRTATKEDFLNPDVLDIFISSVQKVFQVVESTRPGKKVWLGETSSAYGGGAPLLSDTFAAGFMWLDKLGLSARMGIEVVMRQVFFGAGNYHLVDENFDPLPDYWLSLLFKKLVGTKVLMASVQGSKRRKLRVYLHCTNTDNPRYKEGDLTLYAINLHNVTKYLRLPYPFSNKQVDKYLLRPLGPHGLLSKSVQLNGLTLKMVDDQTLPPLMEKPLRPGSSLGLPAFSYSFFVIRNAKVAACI

[3] = target: T2, Beta-glucuronidase (Homo sapiens, UniProt P08236); experiment: Inhibition of GUSbeta (unknown origin)
T2 sequence (P08236 whole entry): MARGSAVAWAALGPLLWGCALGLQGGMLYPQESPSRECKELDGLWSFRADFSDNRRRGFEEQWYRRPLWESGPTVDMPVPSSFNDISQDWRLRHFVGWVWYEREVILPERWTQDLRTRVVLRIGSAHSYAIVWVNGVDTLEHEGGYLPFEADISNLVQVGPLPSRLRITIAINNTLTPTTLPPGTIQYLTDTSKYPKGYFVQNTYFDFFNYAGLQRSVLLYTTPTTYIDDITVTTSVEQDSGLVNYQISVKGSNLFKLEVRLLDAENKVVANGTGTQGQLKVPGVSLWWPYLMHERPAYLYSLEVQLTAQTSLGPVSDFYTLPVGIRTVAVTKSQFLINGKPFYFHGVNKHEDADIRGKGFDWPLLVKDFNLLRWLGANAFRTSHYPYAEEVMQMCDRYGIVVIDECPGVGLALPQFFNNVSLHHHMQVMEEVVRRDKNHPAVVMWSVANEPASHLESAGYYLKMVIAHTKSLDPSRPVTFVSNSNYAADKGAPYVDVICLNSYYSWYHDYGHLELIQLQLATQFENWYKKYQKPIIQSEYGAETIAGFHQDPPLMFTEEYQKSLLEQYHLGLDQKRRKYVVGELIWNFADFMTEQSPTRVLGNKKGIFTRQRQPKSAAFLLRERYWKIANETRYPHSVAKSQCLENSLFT

SMILES | IC50 [1] [nM] | IC50 [2] [nM] | IC50 [3] [nM]
CO[C@H]1[C@H](O)[C@@H](O)c2nc(CCc3cccc(Oc4ccccc4)c3)cn2[C@@H]1C(=O)O | 439 |  | 
O=C(O)[C@@H]1[C@@H](OCCc2ccccc2)[C@H](O)[C@@H](O)c2nc(CCc3cccc(Oc4ccccc4)c3)cn21 | 1250 | 57 | 7210
CC(C)O[C@H]1[C@H](O)[C@@H](O)c2nc(CCc3cccc(Oc4ccccc4)c3)cn2[C@@H]1C(=O)O | 38600 | 621 | 41800
